Patent US20180235213A1, “PLANT HORMONE APPLICATION” (The State of Israel Ministry of Agriculture & Rural …, priority 2015, published 2018)
Entries after “also recorded” stand apart in the source; their conditions may differ.

What was measured:
Roses (Rosa Hybrida) = assay: EGO10 collar application to roses; format: in vivo
Method: Three replicates on experiments were done in two commercial plots. EGO10 was applied at the indicated concentrations as a collar in Eppendorf tube (FIG. 24).
HPC+glycerin and EGO10 (25 or 50 μM), provided in rigid tubes, were applied as described above (Example 13) to roses (Rosa hybrid golden gate). 20 days following application of the formulation by the delivery device, the length of axillary buds (in centimeters) was measured and the number of lateral buds was counted.

olive seedling = assay: Application to olive seedling stem under greenhouse conditions (parafilm, flexible or rigid tubes); conditions: rigid tubes
Method: EGO10 either with PVAc, or HPC+glycerin were applied on olive seedling stem by the use of parafilm cover as the apparatus, under greenhouse conditions (FIG. 15). Greenhouse conditions include controlled room temperature of 25° C. In each experiment, 10 plants were used for each treatment. The substances were applied on the stem by a spatula and covered with parafilm.
In attempt to improve the performance of the apparatus, different substances and different cover were used. Four formulations were developed and tested. These formulations are based on polysaccharide-sorbent-humidifier substances while the main difference between them is the viscosity of the final product and the ability to retain and release of the active ingredient (EGO 10). […] The cover consisted of a flexible plastic tube that was cut (FIG. 16A), placed on the seedling stem (FIG. 16B) and wrapped with transparent plaster (FIG. 16C). The plastic tubes were filled with the experimental material (FIG. 16D). Moist cotton was placed on both sides of the tubes to minimize water evaporation (FIG. 16E and FIG. 16F). Bud outgrowth was measured for 30 days.
Rigid plastic tubes were tested in order to determine their efficiency as a delivery device for application of the hormone formulations to plants. At first, eppendorf tubes served as prototype. The tubes ware cut from top to bottom and placed on the stem of seedlings. Each tube was sealed with a small moist cotton at the bottom, filled with 1 ml of the examined material and finally covered with transparent plastic tape (FIGS. 17A-17E). The tubes were filled with (HPC+glycerin), or PVAc and EGO10 In each experiment, 10 plants were used for each treatment. Greenhouse conditions include controlled room temperature of 25° C.
EGO10 (10 μM) or acetone control together with HPC+glycerin or PVAc were applied on the stem of olive cuttings by the use of rigid plastic tubes as described in Example 10 above.
Bud outgrowth of olive cuttings was measured until day 30.

Koroneiki olives = assay: EGO10 collar and granules application to Koroneiki olives; format: in vivo, Olea europaea L.; conditions: collar of 50 μM
Method: Since Koroneiki olives are one of the most abundant cultivars worldwide, the effect of application of collar of 50 μM and granules that release 3×10^−8 M on development of side branches in this cultivar was examined.

olive cuttings = assay: Plate bioassay of bud outgrowth in olive cuttings; format: in vivo, Olea europaea L.
Method: For the purpose of determining whether the active SL analogs may be used as effective repressors of shoot branching by application on the stem itself, a bioassay examining SL analogs effect on shoot branching in vitro was established. Olive seedlings were grown in greenhouse under controlled temperature of 23° C. Partitioned plates containing ½ Murashige and Skoog (MS) solidified with 1.5% w/v agar were prepared. After solidification, the center plastic area (2 cm) of the plate was removed by scalpel. Olive seedlings were cut between the second and fourth node, and the cuttings were surface-sterilized by 70% ethanol and 1% sodium hypochlorite treatment, and then placed on the plates containing the agar media. The SL analog EGO10 was mixed with ½MS in agar, cubes were cut (1.5 cm area) and positioned at the base of the cutting in the plates (FIG. 4A). Olive seedlings treated with acetone at the same concentrations used in the EGO10 treatments represented the experimental controls. Plates were sealed in two sides only by saran wrap in order to prevent accumulation of gases. The plates were positioned in an upright 90° position and incubated at 22° C. under a photoperiod of 16 hours light followed by 8 hours dark. Photographs were taken every 3 days until day 12 by binocular. Each treatment included eight replicates. […] Bud outgrowth was measured (FIG. 4C) by Image J software and the length of the bud minus its length at the first day following application was calculated. Means of replicates were subjected to statistical analysis by using the IMP statistical package.
The ability of EGO10, applied to olive seedling cuttings through the bark of the stem, to reduce bud outgrowth was examined. An agar tube containing EGO10 was placed on the bark of the cutting (FIG. 6A). Additionally, for increased penetration of the hormone analog, the bark was scratched and the ability of EGO10 to reduce bud outgrowth in comparison to EGO10 application to non-scratched bark was tested.
As a next step in the development of SL application technology, different substances that can serve as media supporting the diffusion of SLs though the bark of plants were examined. As agar usually contains nutritional compounds, bacteria and fungi can easily contaminate agar cubes. Therefore, other substances were examined, as described hereinbelow. Experiments were performed similarly to those described in Example 3 above, by application of EGO10 in different media on the cutting bark, in plates. Bud outgrowth was monitored as described above.
Based on the results above, 30% HPC were mixed with two different concentrations of EGO10; 5 and 10 μM, and applied on the stem of olive seedling (FIG. 10). Bud outgrowth was monitored as described above and the results were compared to those obtained upon using agar cubes (described in Example 3), which served as a positive control.
In an attempt to improve HPC suitability to the examined system, HPC was mixed with glycerin in the ratio of 3:1. Glycerin, as a known humectant, has the capability to moist materials. In exemplary procedures, 5 μM EGO10 were added to the HPC and glycerin mixture, and then placed on the bark of olive cuttings. Bud outgrowth was monitored as described above.
A number of additional possible substances suitable as media for EGO10 application were screened, including polyvinyl acetate (PVAc), polyvinyl pyrrolidone (PVP) and hydroxy ethyl cellulose (HEC). The polymers were used at concentrations of 30% in water, however, as 30% PVP was not solid, it could not be tested. Accordingly, HEC and PVAc were examined for their ability to support EGO10 activity. Bud outgrowth was calculated as described above.

In the case of `CC1=C[C@H](O/C=C2\Cc3c(n(C)c4ccccc34)C2=O)OC1=O` [EGO10], the lateral branching (Roses (Rosa Hybrida); 25 or 50 μM with HPC+glycerin, collar in rigid tubes, 20 days) is reported as “clear tendency of reduction of lateral branching”, the “development of water branches” value (Roses (Rosa Hybrida); collar, 25 or 50 μM) is reported as “did not hinder development” and the plant growth (olive seedling; 10 μM with HPC+glycerin, greenhouse) is reported as “without delaying plant growth”. For the same compound, the bud outgrowth (olive seedling; 10 μM with HPC+glycerin, greenhouse, 30 days, not significantly different from control) was “some inhibition of bud outgrowth”, the “growth of treated olive buds” value (olive seedling; 50 μM with HPC+glycerin) was “grew properly” and the bud outgrowth (olive seedling; 50 μM with HPC+glycerin, until day 30, vs acetone+HPC+glycerin) was “significantly inhibits bud outgrowth”. For the same compound, the side branches development (Koroneiki olives) was “effective in preventing side branches development”, the bud outgrowth (olive cuttings; 5 μM in 30% HEC on the bark) was “did not” and the bud outgrowth (olive cuttings; 5 μM in 30% PVAc on the bark) was “supported EGO10 activity of bud outgrowth inhibition”. For the same compound, the bud outgrowth (olive cuttings; 5 μM in HPC mixed with glycerin (3:1) on the bark, until day 12) was “inhibited bud outgrowth throughout the experimental period”, the bud outgrowth (olive cuttings; 5 μM in PVA:HEC (2:1) on the bark) was “did not sufficiently support EGO10 ability to act to inhibit bud outgrowth” and the bud outgrowth (olive cuttings; 5 μM in PVA:PVP (2:1) on the bark) was “did not sufficiently support EGO10 ability to act to inhibit bud outgrowth”. The bud outgrowth (olive cuttings; 5 μM in agar cube at the base of the cutting, day 12, vs acetone control) was “marked reduction in bud outgrowth”, the bud outgrowth (olive cuttings; 5 μM in agar cube on the bark, 96, 168 and 264 h, vs acetone control) was “significant reduction in bud outgrowth; also recorded: reduced bud outgrowth throughout the entire experimental period” and the bud outgrowth (olive cuttings; 5 and 10 μM in 30% HPC on the stem) was “reduced bud outgrowth until day 4 post application”.
